Source: patent US10738024B2, “Compounds for treatment of angiogenesis-mediated diseases” (Indiana University Research and Technology Corporation, priority 2013, dated 2020)
“Also recorded” adds a separate entry of the source.

Assays:
PTGS2 (COX2) = test: qRT-PCR of NF-κB target gene PTGS2 in TNF-α challenged cells; type: cell-based, human; conditions: 10 ng/ml TNF-α for 24 hours; listed as SH-11052 (2)
Experimental: (§1) Similarly, the mRNA expression of the pro-inflammatory molecules IL8, PTGS2 (COX2) and CCL2 (MCP-1), inducible by NF-κB, were analyzed in the presence of SH-11052 (2). Cells (10^5 per well) were seeded in a 6-well plate and incubated for 24 hours at 37° C. and 5% CO2. The cells were then starved in 0.1% serum-EBM-2 for 12 hours followed by incubation for an hour in the presence of different concentrations of SH-11052 (2). The cells were then challenged for 24 hours with 10 ng/ml TNF-α. Following incubation, cells were lysed and RNA was isolated using Trizol reagent (Life Technologies). cDNA was prepared from 80 ng total RNA using random primers and M-MuLV Reverse Transcriptase (New England Biolabs, Ipswich, Mass., USA). RT-PCR reactions were set up using the TaqMan Fast Gene Expression Assay Kit according to the manufacturer's instructions. FAM-labeled TaqMan probes for PTGS2 (Hs00153133_m1), CCL2 (Hs00234140_m1), IL8 (Hs00174103_m1), and control, TBP (Hs99999910_m1), genes were used to monitor the expression levels of these genes. The qRT-PCR plate was read in a ViiATM 7 qPCR system (Life Technologies) and the data were analyzed using the ΔΔCt method. The expression levels of genes were normalized to TBP gene expression and calibrated to the DMSO-treated, unstimulated sample.

CCL2 (MCP-1) = test: qRT-PCR of NF-κB target gene CCL2 in TNF-α challenged cells; type: cell-based, human; conditions: 10 ng/ml TNF-α for 24 hours; listed as SH-11052 (2)
Experimental: as §1

HRECs = test: EdU incorporation (DNA synthesis) in HRECs; type: cell-based, human; conditions: 24 hours treatment, 10 μM EdU pulse; listed as SH-11052 (2)
Experimental: In order to confirm the inhibition of cell proliferation, incorporation of 5-ethynyl-2′-deoxyuridine (EdU) into endothelial cells in the presence of SH-11052 (2) was further monitored. Particularly, cells (25,000 per coverslip) were seeded onto coverslips coated with Attachment Factor (Cell Systems, Kirkland, Wash., USA) placed in a 6-well plate and incubated with the indicated concentrations of SH-11052 (2) in EGM-2 for 24 hours at 37° C. and 5% CO2. The cells were then serum starved for 8 hours and the medium was replaced with EGM-2 containing 10 μM EdU. The plate was further incubated for another 8 hours before processing the cells for detection of labeled DNA (according to the manufacturer's instructions for the Click-iT EdU assay kit). Images were taken using an EVOS fluorescence microscope (AMG, Mill Creek, Wash., USA) and the number of DAPI stained and EdU stained cells were counted in six randomly chosen fields using ImageJ software.

IκB-α = test: TNF-α-mediated degradation of IκB-α in HRECs (immunoblot); type: cell-based, human; conditions: 20 ng/ml TNF-α, 20 minutes
Experimental: (§2) HRECs were seeded at 10^5 cells/well in a 6-well plate and after 24 hours of incubation at 37° C., cells were serum starved in 0.1% serum-EBM-2 for 8 hours. Cells were then treated with the indicated concentrations of SH-11052 (2) for one hour before the addition of 20 ng/ml of TNF-α. After 20 minutes, cells were lysed in NP-40 Lysis buffer containing 25 mM HEPES pH 7.4, 1% NP-40, 150 mM NaCl, 10% glycerol, 1 mM sodium orthovanadate, 10 mM sodium fluoride, 1 mM sodium pyrophosphate, 1 mM PMSF, 2.5 mg/ml aprotinin, 1 mM pepstatin, and 1 mM leupeptin. Equal amounts of proteins (80 μg), as measured by a Bradford assay, were run on 10% SDS-PAGE, transferred to PVDF membrane, blocked with 5% BSA in TBS-0.05% Tween-20 and immunoblotted with the indicated primary antibodies (1:1000 in 1% BSA in TBS-0.05% Tween-20) overnight at 4° C. After three washes in TBS-0.05% Tween-20, HRP-conjugated secondary antibodies (1:5000 in 5% BSA in TBS-0.05% Tween-20) were applied for one hour at room temperature. After three washes, the protein bands were detected and densitized using ECL Prime western blot detection reagent (GE Life Sciences, Piscataway, N.J., USA) and an XRS gel documentation system running Quantity One software (Bio-Rad). Target protein band intensity was normalized to housekeeping gene α-tubulin. […]

VEGFR2 = test: Phosphorylation of VEGFR2 in HRECs upon VEGF stimulation (immunoblot); type: cell-based, human; conditions: 100 ng/ml VEGF, 20 minutes
Experimental: as §2, with “of 100” for “of 20”, “ng/ml VEGF.” for “ng/ml of TNF-α.”

Akt = test: Phosphorylation of Akt in HRECs upon VEGF stimulation (immunoblot); type: cell-based, human; conditions: 100 ng/ml VEGF, 20 minutes
Experimental: as §2, with “of 100” for “of 20”, “ng/ml VEGF.” for “ng/ml of TNF-α.”

p21, CDK1, IL-6 and IL-8 = test: Gene expression effects on p21, CDK1, IL-6 and IL-8 (data not shown); type: cell-based; conditions: compared with cremastranone

Row | Compound | mRNA expression of PTGS2 (COX2) (PTGS2 (COX2)) | mRNA expression of CCL2 (MCP-1) (CCL2 (MCP-1)) | DNA synthesis (EdU incorporation) in HRECs (HRECs) | TNF-α-mediated degradation of IκB-α (IκB-α) | phosphorylation of VEGFR2 (VEGFR2) | activation (phosphorylation) of Akt (Akt) | gene expression effects on p21, CDK1, IL-6 and IL-8 (p21, CDK1, IL-6 and IL-8)
1 | COc1ccc(CC2COc3cc(OC)c(O)c(O)c3C2=O)cc1O (single isomer, unassigned) [Compound 2] | decreased the expression | decreased the expression | blocked EdU incorporation; also recorded: significantly inhibited in a dose dependent manner | significantly decreased in a dose dependent manner | did not inhibit phosphorylation | inhibited activation | 
2 | COc1ccc(CC2COc3cc(OC)c(OC)c(OC)c3C2=O)cc1OC(=O)[C@H](Cc1ccccc1)NC(=O)OC(C)(C)C (stereo partly drawn) [Compound 6c, (2S)-2-methoxy-5-((5,6,7-trimethoxy-4-oxochroman-3-yl)methyl)phenyl 2-((tert-butoxycarbonyl)amino)-3-phenylpropanoate] |  |  |  |  |  |  | did not share cremastranone's gene expression effects
